According to article PMC5570900, “Exploiting a novel conformational switch to control innate immunity mediated by complement protein C3a” (Nature Communications, 2017):

Biological target: T1, C3aR (Homo sapiens, UniProt Q16581)
T1 sequence (Q16581 1-482): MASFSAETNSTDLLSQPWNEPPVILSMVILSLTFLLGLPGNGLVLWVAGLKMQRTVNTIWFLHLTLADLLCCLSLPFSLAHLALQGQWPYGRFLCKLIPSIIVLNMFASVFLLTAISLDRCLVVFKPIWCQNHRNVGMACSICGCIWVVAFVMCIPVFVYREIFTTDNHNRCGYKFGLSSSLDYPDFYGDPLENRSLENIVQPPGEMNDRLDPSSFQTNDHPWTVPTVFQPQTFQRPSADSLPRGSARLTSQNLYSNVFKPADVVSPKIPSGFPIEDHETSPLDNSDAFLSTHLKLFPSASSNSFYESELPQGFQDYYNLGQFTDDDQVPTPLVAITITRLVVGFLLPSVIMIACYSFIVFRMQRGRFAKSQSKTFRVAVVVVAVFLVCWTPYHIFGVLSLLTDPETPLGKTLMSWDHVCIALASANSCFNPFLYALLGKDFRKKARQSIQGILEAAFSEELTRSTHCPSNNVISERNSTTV
Experiment: Inhibition of hC3a-induced Ca2+ release in human monocyte-derived macrophages
Assay type: cell-based
Set-up: Concentration-dependent Ca^2+ release in human monocyte-derived macrophages (HMDMs); endogenous in cells; host or cells: primary human monocyte-derived macrophages (HMDMs)
Conditions: HMDMs, hC3a 100 nM, n ≥ 3, ± SEM
Method: HMDMs were isolated using Ficoll-paque density centrifugation (GE Healthcare Bio-Science, Uppsala, Sweden) from buffy coat (of anonymous human donors) provided by the Australian Red Cross Blood Service, Brisbane. CD14^+ monocytes were positively selected using CD14 MicroBeads (Miltenyi Biotech, Auburn, USA)[40], [41]. CD14^+ monocytes were differentiated to HMDMs using 100 ng/mL of recombinant human macrophage colony-stimulating factor (PeptroTech, Rocky Hill, USA) for 7 days in Iscove’s modified Dulbecco’s media supplemented with 10% fetal bovine serum, penicillin (100 U/mL), streptomycin (100 µg/mL) and L-glutamine (2 mM). HMDMs were supplemented after 5 days with fresh medium containing 10 ng/ml macrophage colony-stimulating factor and collected by gentle scraping on day 7.
HMDMs were seeded to a 96-well clear-bottom black-wall assay plate at a density of 5 × 10^4 cells per well and allowed to adhere overnight. Prior to assay, cells were incubated with dye-loading buffer (Hank’s balance salt solution (HBSS) buffer, 4 μM Fluo-3 AM, 25 μl Pluronic acid F-127 and 1% fetal bovine serum) for 1 h at 37 °C. Cells were then washed once with assay buffer (HBSS supplemented with 2.5 mM probenecid and 20 mM HEPES, pH 7.4). Intracellular calcium release was monitored using a fluorescence imaging plate reader (excitation 495 nm, emission 520 nm). The percentage responses were plotted against logarithmic concentrations of each test compound[42].

N=C(N)NCCCC(NC(=O)c1ccc(C(c2ccccc2)c2ccccc2)s1)C(=O)O (stereo not shown) [Compound 6] gave an IC50 of 85 ± 40 nM.
